Measurements as given in PubChem BioAssay (NCI).
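Where inhibition never reached the appropriate level, the endpoint shown equals the highest concentration tested. Otherwise, values were interpolated linearly from a five-concentration, 48-hour dose response in 96-well plates. GI50 marks 50% less growth. Definition used: TGI = concentration required for complete inhibition of growth.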

Experiments:
Test in all cases: inhibition of tumour cell growth, NCI panel, 48 h
BT-549 breast = test system: BT-549 breast
HOP-62 NSCLC = test system: HOP-62 NSCLC
HOP-92 NSCLC = test system: HOP-92 NSCLC
M14 melanoma = test system: M14 melanoma
NCI-H522 lung = test system: NCI-H522 lung
OVCAR-8 ovarian = test system: OVCAR-8 ovarian
SK-OV-3 ovarian = test system: SK-OV-3 ovarian
SNB-19 CNS = test system: SNB-19 CNS
T-47D breast = test system: T-47D breast
UACC-62 melanoma = test system: UACC-62 melanoma

Compound | GI50 (BT-549 breast) [µM] | TGI (BT-549 breast) [µM] | GI50 (HOP-62 NSCLC) [µM] | TGI (HOP-62 NSCLC) [µM] | GI50 (HOP-92 NSCLC) [µM] | TGI (HOP-92 NSCLC) [µM] | GI50 (M14 melanoma) [µM] | TGI (M14 melanoma) [µM] | GI50 (NCI-H522 lung) [µM] | TGI (NCI-H522 lung) [µM] | GI50 (OVCAR-8 ovarian) [µM] | TGI (OVCAR-8 ovarian) [µM] | GI50 (SK-OV-3 ovarian) [µM] | TGI (SK-OV-3 ovarian) [µM] | GI50 (SNB-19 CNS) [µM] | TGI (SNB-19 CNS) [µM] | GI50 (T-47D breast) [µM] | TGI (T-47D breast) [µM] | GI50 (UACC-62 melanoma) [µM] | TGI (UACC-62 melanoma) [µM]
CC[C@@]1(OC(=O)CN(C)C)C(=O)OCc2c1cc1n(c2=O)Cc2cc3c(N)cccc3nc2-1 | 0.0634 | > 100 | 0.0119 | 0.432 | 0.0239 | 0.785 | 0.0178 | 0.128 | 0.0744 | 3.36 | 0.0272 | 0.488 | 0.0402 | 0.884 | 0.0252 | > 100 | 0.0253 | 0.868 | 0.0164 | 0.159
Clc1cc2ccccc2c2ccccc12 | – | 96.7 | – | > 100 | – | 87.3 | – | > 100 | – | > 100 | – | > 100 | – | – | – | > 100 | – | > 100 | – | > 100
O=C(O)C1OC1C(=O)O (stereo not given) | – | > 100 | – | > 100 | – | > 100 | – | > 100 | – | > 100 | – | > 100 | – | > 100 | – | > 100 | – | > 100 | – | > 100
CN(C)CCNCc1ccc2c(-c3ccccc3)nc3cc(Cl)c(Cl)cc3n12 | – | 30.9 | – | 27.4 | – | 28.3 | – | 15.3 | – | 27.8 | – | 27.7 | – | 17.4 | – | 28.9 | – | 15.1 | – | 17.7
CCc1c2cc(OC)c(OC)cc2cc2c3cc(OC)c(OC)cc3cc[n+]12 (tested in a mixture with another compound) | – | 17.4 | – | > 95.4 | – | > 80 | – | > 86.6 | – | 34.3 | – | > 72.6 | – | > 97.2 | – | 82.1 | – | > 67 | – | 73.8
COc1cc2c(cc1OC)C1c3ccccc3CCN1CCC2 (stereo not given) | – | 81.4 | – | > 100 | – | – | – | > 100 | – | – | – | > 100 | – | > 100 | – | > 100 | – | > 100 | – | > 100
O=S(=O)(O)c1cc(S(=O)(=O)O)c2cc(N=Nc3c(O)ccc4ccccc34)ccc2c1 | – | > 100 | – | > 100 | – | > 100 | – | > 100 | – | > 100 | – | > 100 | – | > 100 | – | > 100 | – | > 100 | – | > 100
CCOC(=O)c1nc2ccccc2n(CC)c1=O | – | > 100 | – | > 100 | – | > 100 | – | > 100 | – | > 100 | – | > 100 | – | > 100 | – | > 100 | – | > 100 | – | > 100
CO/N=C(/C)c1cccc(Nc2nc3ccc(Cl)cc3c3[nH]c4ccccc4c23)c1 | – | – | – | 24.4 | – | 21 | – | 20.7 | – | 13.4 | – | 23.1 | – | 49.6 | – | 35.6 | – | 7.28 | – | 19.8
O=C1CNC(=O)/C(=C/c2c[nH]c3ccccc23)N1 | – | > 100 | – | > 100 | – | > 100 | – | > 100 | – | > 100 | – | > 100 | – | > 100 | – | > 100 | – | > 100 | – | > 100
COC(=O)c1c(C)[nH]c2c1C(=O)C(=O)c1nc(C)c(C)nc1-2 | – | 23 | – | 22 | – | 24.8 | – | 27 | – | 21.4 | – | 26.8 | – | 18.5 | – | 27.4 | – | 9.55 | – | 18.9
Clc1ccc(C2CC(c3cccc(Nc4ccncc4)c3)=NN2c2ccc(Cl)cc2)cc1 (stereo not given) | – | – | – | – | 1.38 | 2.79 | – | – | – | – | – | – | 1.77 | 3.41 | – | – | – | – | 1.66 | 3.04
Cc1cc(C)c2c(n1)S(=O)(=O)N(CCCN1CCN(c3cccc(Cl)c3)CC1)/C(=C(\O)c1ccccc1)C2=O | – | > 100 | – | > 100 | – | 77.4 | – | > 100 | – | > 100 | – | > 100 | – | > 100 | – | > 100 | – | > 100 | – | > 100
O=C(Nn1c(-c2cccs2)nc2ccc(I)cc2c1=O)c1ccccc1 | – | 51.9 | – | > 100 | – | 51.7 | – | > 100 | – | 59.5 | – | > 100 | – | – | – | 64.5 | 11.1 | 37.6 | – | 57.3
OC(c1ccc(Cl)cc1)(c1ccc(Cl)cc1)c1cncnc1 | – | 42 | – | 35.3 | – | 31.2 | – | 32.8 | – | – | – | 54.8 | – | – | – | 48.8 | – | > 100 | – | 30.1
